Experimental data reported in patent US20240277829A1, “HIV-1 VACCINATION AND SAMT-247 MICROBICIDE TO PREVENT HIV-1 INFECTION” (priority 2021, published 2024).
“Also recorded” adds a separate entry of the source.

Test system: mucosal Th1 and Th2 cells
Test: Frequencies and cytokine levels of macaque rectal mucosal T cells following SAMT-247 and PMA stimulation
Type: cell-based
Source text: Additionally, rectal tissue from 9 macaques was used for an in vitro study. The age-matched macaques from this separate study (P204) included 4 animals vaccinated against HIV and 5 naïve animals, all challenged with SHIV. Rectal tissue was obtained post challenge from 7 infected and 2 uninfected animals for the P204 study analysis. Extra cells were available from that collection and were used here for the in vitro study.
Frequencies and cytokine levels of macaque rectal mucosal NK cells and T cells following SAMT-247 and PMA stimulation. NK/ILC and T cell frequencies and cytokine levels were measured in macaque rectal mucosa. Freshly collected rectal biopsies were processed to single cells and cultured in R10 in the presence/or absence of SAMT-247 and/or PMA for 12 hours. Subsequently, cells were stained for live cells with Live/Dead Blue dye (cat. #L34962, 0.5 μl) from Thermofisher; followed by surface staining with the following: BUV737 anti-CD3 (SP34-2; cat. #741872, 5 μl), BV711 anti-CD4 (L200; cat. #563913, 5 μl), BV650 anti-NKp44 (P44-8; cat. #744302, 5 μl), Alexa700 anti-CD20 (2H7; cat. #560631, 5 μl), BV786 anti-CD45 (D058-1283; cat. #563861, 5 μl) from BD Biosciences; APC-H7 anti-CD11b (ICRF44; cat. #47-0118-42, 5 μl), PE-Cy5 anti-CD95 (ICRF44; cat. #15-0959-42, 5 μl) from eBioscience; BV570 anti-CD8 (RPA-T8; cat. #301038, 5 μl), BV605 anti-CCR6 (G034E3; cat. #353420, 5 μl), APC anti-CXCR3 (G025H7; cat. #353708, 5 μl), from Biolegend and PE-Cy7 anti-NKG2A (Z199; cat. #B10246, 5 μl) from Beckman coulter for 30 minutes at room temperature. This was followed by permeabilization with a FOX3-transcription buffer set (cat. #00-5523-00) from eBioscience according to the manufacture's recommendation and subsequently intracellular staining with the following: BV750 anti-TNF-α (MAB11; cat. #566359, 5 μl), BUV395 anti-IFN-γ (B27; cat. #563563, 5 μl), BV510 anti-GranB (GB11; cat. #563388, 5 μl), BV421 anti-IL-10 (JES3-9D7; cat. #564053, 5 μl) from BD Biosciences; PE-Cy5.5 anti-IL-17 (BL168; cat. #512314, 5 μl) from Biolegend; and FITC anti-Perforin (pf-344; cat. #3465-7, 5 μl) from MABTECH for 30 minutes at room temperature. Flow cytometry acquisitions were performed on a FACSymphony A5 and examined using FACSDiva software (BD Biosciences).

SMILES: CCCCCCCCCCCCCC(=O)O[C@@H]1[C@@H](C)[C@@]2(O)[C@@H](C=C(CO)C[C@]3(O)C(=O)C(C)=C[C@@H]23)[C@@H]2C(C)(C)[C@]12OC(C)=O [PMA]
- overall mucosal Th1 and Th2 cell frequencies (PMA stimulation): did not change
- Cytokines, Unstim vs PMA Stimulation (mucosal Th1): >TNF-α; also recorded: >IL-10; also recorded: >IFN-γ
- Cytokines, Unstim vs PMA Stimulation (mucosal Th2): >IFN-γ; also recorded: >TNF-α; also recorded: >IL-10
